Source: ChEMBL document CHEMBL5233245, “Monocarboxylate transporter 1 and 4 inhibitors as potential therapeutics for treating solid tumours: A review with structure-activity relationship insights” (Eur J Med Chem, 2020)

Biological target: T1, Monocarboxylate transporter 1 (Rattus norvegicus) (UniProt P53987)
T1 sequence (whole entry): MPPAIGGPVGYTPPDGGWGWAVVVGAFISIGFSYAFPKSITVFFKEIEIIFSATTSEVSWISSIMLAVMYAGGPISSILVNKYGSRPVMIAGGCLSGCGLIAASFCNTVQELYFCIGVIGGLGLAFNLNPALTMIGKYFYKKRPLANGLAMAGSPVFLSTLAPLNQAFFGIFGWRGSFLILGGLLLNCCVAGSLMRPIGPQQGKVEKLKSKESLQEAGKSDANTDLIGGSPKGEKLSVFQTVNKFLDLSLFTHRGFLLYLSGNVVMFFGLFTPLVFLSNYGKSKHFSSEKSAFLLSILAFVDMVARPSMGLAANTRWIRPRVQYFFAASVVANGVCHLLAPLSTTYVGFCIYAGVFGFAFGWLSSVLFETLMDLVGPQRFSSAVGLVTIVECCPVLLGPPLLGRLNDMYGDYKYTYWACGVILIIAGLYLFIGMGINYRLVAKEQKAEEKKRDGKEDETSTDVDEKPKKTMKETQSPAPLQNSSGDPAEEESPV
Assay: Inhibition of rat MCT1 expressed in human MDA-MB-231 cells in presence of [3H]-GHB by liquid scintillation spectroscopy analysis
Assay type: cell-based
Parameters: concentration or dose not given beside the values
Conditions: concentration not given here

SMILES	inhibition
O=c1c(O)c(-c2ccc(O)cc2O)oc2cc(O)cc(O)c12	100%
COc1ccc(-c2cc(=O)c3c(O)cc(O)cc3o2)cc1O	49%
O=c1c(O)c(-c2ccc(O)c(O)c2)oc2cc(O)cc(O)c12	87%
O=c1c(O)c(-c2ccc(O)c(O)c2)oc2cc(O)ccc12	93%
O=c1cc(-c2ccc(O)c(O)c2)oc2cc(O)cc(O)c12	100%
O=c1cc(-c2ccc(O)cc2)oc2cc(O)cc(O)c12	50%
